From ChEMBL document CHEMBL1152359, “Synthesis and structure-activity relationships of gamma-carboline derivatives as potent and selective cysLT(1) antagonists” (Bioorg Med Chem Lett, 2009)

Test: in vivo
Conditions: rat

With `COc1cc(C(=O)NS(=O)(=O)c2ccccc2C)ccc1Cc1cn(C)c2ccc(NC(=O)OC3CCCC3)cc12` [ZAFIRLUKAST] the bioavailability was 25%.

With `CC(C)(O)c1ccccc1CC[C@@H](SCC1(CC(=O)O)CC1)c1cccc(/C=C/c2ccc3ccc(Cl)cc3n2)c1` [MONTELUKAST] the bioavailability was 63%.
